Test systems include EKVX NSCLC; LOX IMVI melanoma; MALME-3M melanoma; NCI-H226 lung; SW-620 colon; U251 CNS; UACC-257 melanoma; UO-31 renal; OVCAR-4 ovarian; MCF7 breast.
Experiment in all cases: growth of human tumour cells (NCI), 48 h

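Protocol summary: plate cells (96-well), add compound at 5 concentrations, incubate 48 h, interpolate endpoints linearly. Here, GI50 denotes the concentration required for 50% inhibition of growth. TGI: total growth inhibition.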

Regarding `Cc1nc(-c2cccnc2)sc1C(=O)/C=C/c1ccc(Cl)cc1Cl`, the TGI in the test on EKVX NSCLC, in the test on LOX IMVI melanoma, with MALME-3M melanoma, with NCI-H226 lung, in the test on SW-620 colon and in the test with U251 CNS was over 100 µM throughout. For the same compound, the TGI with UACC-257 melanoma and with UO-31 renal was over 100 µM in each case.

On to `Clc1ccc(N=CNc2ccc(-c3nc4ccccc4[nH]3)cc2)cc1`, for which the GI50 is 0.482 µM with EKVX NSCLC; 1.37 µM in the test on LOX IMVI melanoma; 65.4 µM in the test with NCI-H226 lung; 48.4 µM with OVCAR-4 ovarian; over 100 µM in the test on SW-620 colon; 20.9 µM in the test on U251 CNS. The GI50 in the test on UACC-257 melanoma was over 100 µM; in the test with UO-31 renal, 13.9 µM. The TGI was 34.5 µM with EKVX NSCLC; 24.8 µM with LOX IMVI melanoma; over 100 µM in the test with NCI-H226 lung; over 100 µM in the test on OVCAR-4 ovarian; over 100 µM in the test on SW-620 colon; over 100 µM in the test with U251 CNS. Further, the TGI in the test with UACC-257 melanoma and in the test with UO-31 renal was over 100 µM in each case.

With `NC(=O)NC(=O)C1CCC(=O)N1S(=O)(=O)c1ccc(Cl)cc1` (stereo not given), the TGI in the test on EKVX NSCLC, in the test on MALME-3M melanoma, with NCI-H226 lung, in the test with OVCAR-4 ovarian, in the test with SW-620 colon and with U251 CNS was over 100 µM throughout. The TGI with UACC-257 melanoma and in the test on UO-31 renal was over 100 µM throughout.

Regarding `CCCCCCCCCCCCCCCC(=O)NCC(OCC)OCC`, the TGI in the test with EKVX NSCLC, in the test with LOX IMVI melanoma, in the test on MALME-3M melanoma, in the test on NCI-H226 lung, in the test on OVCAR-4 ovarian and in the test on SW-620 colon was over 100 µM throughout. Further, the TGI in the test with U251 CNS, in the test with UACC-257 melanoma and with UO-31 renal was over 100 µM in each case.

For `Nc1nc(N)c(-c2ccccc2)c(C(=O)Nc2nccs2)n1`, the TGI in the test on EKVX NSCLC, in the test with LOX IMVI melanoma, in the test with MALME-3M melanoma, in the test with NCI-H226 lung, in the test on OVCAR-4 ovarian and in the test with SW-620 colon was over 100 µM each time. In addition, the TGI in the test with U251 CNS, with UACC-257 melanoma and with UO-31 renal was over 100 µM each time.

As to `O=[N+]([O-])c1cccc(C2=NOC3CCCC23)c1` (stereo not given), the TGI in the test on EKVX NSCLC, with MALME-3M melanoma, in the test on NCI-H226 lung, in the test on OVCAR-4 ovarian, in the test with SW-620 colon and in the test with U251 CNS was over 100 µM each time. The TGI with UACC-257 melanoma and in the test with UO-31 renal was over 100 µM throughout.

As for `CN(C)C(=O)c1cc2cnc(Nc3ccc(N4CCNCC4)cn3)nc2n1C1CCCC1`, the GI50 with LOX IMVI melanoma is 4.44 µM; with MALME-3M melanoma, 5.4 µM; in the test with MCF7 breast, 0.592 µM; with NCI-H226 lung it was 25.2 µM; in the test on OVCAR-4 ovarian it was 22.4 µM; in the test on SW-620 colon, 1.21 µM. Also, the figures for the GI50 in the test on U251 CNS, with UACC-257 melanoma and in the test on UO-31 renal were 11.3 µM, 15.7 µM and 4.56 µM, respectively. For the same compound, the TGI in the test with LOX IMVI melanoma is 26.3 µM; in the test with MALME-3M melanoma it was 22.3 µM; with MCF7 breast, 37.2 µM; with NCI-H226 lung it was over 100 µM; in the test on OVCAR-4 ovarian, 86.8 µM; in the test on SW-620 colon, 66 µM. The TGI was found to be 49.8 µM with U251 CNS, 33.4 µM in the test on UACC-257 melanoma and 62.1 µM with UO-31 renal.

As for `CS(=O)(=O)Nc1ccc(Nc2c3ccccc3nc3cc(Cl)ccc23)cc1`, the GI50 is 0.406 µM in the test with LOX IMVI melanoma; 1.96 µM in the test with MALME-3M melanoma; 0.389 µM in the test on MCF7 breast; 0.672 µM in the test with NCI-H226 lung; 3.84 µM in the test on OVCAR-4 ovarian; 0.686 µM in the test on SW-620 colon. Besides, the results for the GI50 with U251 CNS, in the test on UACC-257 melanoma and with UO-31 renal were 0.828 µM, 3.33 µM and 0.58 µM, respectively. The TGI turned out to be 4.79 µM in the test with LOX IMVI melanoma; 12.3 µM in the test on MALME-3M melanoma; 13.4 µM in the test with MCF7 breast; 6.17 µM in the test on NCI-H226 lung; 21.7 µM with OVCAR-4 ovarian; 15.4 µM in the test with SW-620 colon. Besides, the figures for the TGI in the test on U251 CNS, in the test on UACC-257 melanoma and with UO-31 renal were 13.5 µM, 16.7 µM and 8.96 µM, respectively.

`OCCn1c(-c2ccncc2)c(-c2ccc(F)cc2)c2ncccc21`: the GI50 in the test on LOX IMVI melanoma, with MALME-3M melanoma, with MCF7 breast, in the test on NCI-H226 lung, in the test on OVCAR-4 ovarian and in the test with SW-620 colon was over 25 µM each time. In addition, the GI50 in the test on U251 CNS is over 25 µM; in the test on UACC-257 melanoma it was over 25 µM; in the test on UO-31 renal it was 12.5 µM. The TGI in the test with LOX IMVI melanoma, with MALME-3M melanoma, with MCF7 breast, in the test with NCI-H226 lung, in the test on OVCAR-4 ovarian and in the test with SW-620 colon was over 25 µM in each case. The TGI with U251 CNS, with UACC-257 melanoma and in the test on UO-31 renal was over 25 µM each time.

Consider `c1csc(-c2[nH]nc3c2CCc2ccccc2-3)c1`, for which the GI50 in the test on LOX IMVI melanoma is 15.7 µM; in the test with MALME-3M melanoma, 19.8 µM; with MCF7 breast it was 0.23 µM; with NCI-H226 lung it was 13.5 µM; with OVCAR-4 ovarian it was 2.12 µM; with SW-620 colon, 20.3 µM. The GI50 was 11.6 µM in the test with U251 CNS, 19.8 µM in the test with UACC-257 melanoma and 6.4 µM in the test with UO-31 renal. The TGI worked out at 29.4 µM in the test on LOX IMVI melanoma; 50.4 µM in the test with MALME-3M melanoma; 11.8 µM in the test with MCF7 breast; 42.2 µM in the test on NCI-H226 lung; 37.3 µM with OVCAR-4 ovarian; 46.1 µM in the test with SW-620 colon. The results for the TGI with U251 CNS, with UACC-257 melanoma and in the test on UO-31 renal were 26.3 µM, 49.1 µM and 34.9 µM, respectively.

The values are drawn from PubChem BioAssay (NCI).
